Assay: Body weight of the EAE mice (Table 7)
Format: in vivo
From the text: These differences were statistically significant (p<0.000, Manova). According to the subsequent Post Hoc comparison (LSD), all the groups were different from the control (Table 7). […] On day 14, four days after the onset of the disease, sick mice lost an average of 2 g of weight. The average mean weight of GA-blocked mice was reduced by only 0.4 g. On day 23 the control group reached the lowest weight, 14.6 g.

C#CCN[C@@H]1CCc2ccc(OC(=O)N(C)CC)cc21 [Ladostigil, R(+)-6-(N-methyl,N-ethyl-carbamoyloxy)-N′-propargyl-1-aminoindan]
Weight of EAE mice (day 2 after induction, ladostigil salt 10.2 mg/kg gavage daily): 18.1 ± 1.0 g | Weight of EAE mice (day 2 after induction, ladostigil salt 25.5 mg/kg gavage daily): 18.2 ± 0.8 g | Weight of EAE mice (day 2 after induction, ladostigil salt 51 mg/kg gavage daily): 18.2 ± 0.9 g | Weight of EAE mice (day 2 after induction, ladostigil salt 70.1 mg/kg gavage daily): 18.5 ± 0.8 g | Weight of EAE mice (day 14 after induction, ladostigil salt 10.2 mg/kg gavage daily): 16.0 ± 1.7 g | Weight of EAE mice (day 14 after induction, ladostigil salt 25.5 mg/kg gavage daily): 15.9 ± 1.7 g | Weight of EAE mice (day 14 after induction, ladostigil salt 51 mg/kg gavage daily): 15.6 ± 1.6 g | Weight of EAE mice (day 14 after induction, ladostigil salt 70.1 mg/kg gavage daily): 15.9 ± 1.4 g | Weight of EAE mice (day 30 after induction, ladostigil salt 10.2 mg/kg gavage daily): 17.6 ± 2.5 g | Weight of EAE mice (day 30 after induction, ladostigil salt 25.5 mg/kg gavage daily): 17.8 ± 1.4 g | Weight of EAE mice (day 42 after induction, ladostigil salt 10.2 mg/kg gavage daily): 17.5 ± 2.9 g | Weight of EAE mice (day 42 after induction, ladostigil salt 25.5 mg/kg gavage daily): 17.6 ± 1.7 g | Weight compared with positive control (highest dose of ladostigil, day 30): comparable with the positive control

From US20060276537A1, “Use of ladostigil for the treatment of multiple sclerosis” (priority 2005, published 2006)
